Measurements from patent publication US20250144067A1, “PERSONALIZED STARVATION THERAPY FOR CANCER” (Faeth Therapeutics, Inc., priority 2021, published 2025).

System: NCI-H292 lung cancer cells
Assay: FDA drug screening, complete media vs cholesterol-free media without statin (TABLE 1)
Format: cell-based, human
Settings: not given

Going from Benztropine (mesylate) to Brimonidine (tartrate), the Cholesterol-free rises from 0.859 to 1.093.

Going from Chloramphenicol succinate (sodium) to Chloroquine (phosphate), the Cholesterol-free rises from 0.9119 to 1.557.

First: Benztropine (mesylate)
Second: Brimonidine (tartrate)
The Complete of the first is lower: 0.7883 for the first, 0.9545 for the second.

Compared with Chloramphenicol succinate (sodium), Chloroquine (phosphate) is higher in Complete: 0.8447 for the first, 0.9171 for the second.

Going from Benztropine (mesylate) to Brimonidine (tartrate), the Difference falls from −0.07 to −0.14.

Going from Chloramphenicol succinate (sodium) to Chloroquine (phosphate), the Difference falls from −0.07 to −0.64.

Same assay, conditions: Complete minus Cholesterol-free; >0 enhanced anti-cancer activity, about 0 neutral, <0 antagonist

Going from Bazedoxifene (acetate) to Carbetapentane (citrate), the Difference rises from −0.29 to −0.21.

Compared with Carbinoxamine maleate salt, Clebopride (malate) is lower in Difference: −0.20 for the first, −0.29 for the second.

Going from Clomiphene (citrate) to Cobimetinib (hemifumarate), the Difference rises from −0.25 to 0.01.

Same assay, conditions: Complete minus Cholesterol-free; […]

Compared with Baricitinib (phosphate), Bismuth subgallate is higher in Difference: −0.20 for the first, −0.19 for the second.

Compared with Bleomycin (sulfate), Bremelanotide (Acetate) is lower in Difference: −0.05 for the first, −0.90 for the second.

Compared with Bromocriptine (mesylate), Bulleyaconitine A is lower in Difference: −0.12 for the first, −0.17 for the second.

Compared with Carbasalate calcium, Cetrorelix (Acetate) is lower in Difference: −0.21 for the first, −1.14 for the second.

Substance Chondroitin (sulfate) has a Difference of −0.48.

Same assay, conditions: NCI-H292 cells in cholesterol-free media without statin

Compared with Bremelanotide (Acetate), Cetrorelix (Acetate) is higher in Cholesterol-free: 1.638 for the first, 1.889 for the second.

With Chondroitin (sulfate) the Cholesterol-free was 1.247.

Same assay, conditions: NCI-H292 cells in complete media

Compared with Bremelanotide (Acetate), Cetrorelix (Acetate) is higher in Complete: 0.7395 for the first, 0.7459 for the second.

In the case of Chondroitin (sulfate), the Complete is reported as 0.7715.

Same assay, conditions: NCI-H292 cells, FDA drug library screen, cholesterol-free media without statin

Compared with Bromocriptine (mesylate), Bulleyaconitine A is higher in Cholesterol-free: 0.9359 for the first, 1.261 for the second.

Same assay, conditions: NCI-H292 cells, FDA drug library screen, complete media

Going from Bromocriptine (mesylate) to Bulleyaconitine A, the Complete rises from 0.8127 to 1.091.

Same assay, conditions: NCI-H292 cells, cholesterol-free media without statin

Compared with Baricitinib (phosphate), Bismuth subgallate is higher in Cholesterol-free: 0.7762 for the first, 1.126 for the second.

Going from Carbasalate calcium to Carbetapentane (citrate), the Cholesterol-free rises from 1.087 to 1.181.

Compared with Carbinoxamine maleate salt, Clebopride (malate) is lower in Cholesterol-free: 1.129 for the first, 0.9703 for the second.

For Clomiphene (citrate), the Cholesterol-free was 1.001.

Same assay, conditions: NCI-H292 cells, cholesterol-free media without statin, FDA drug library screen

First: Bleomycin (sulfate)
Second: Cobimetinib (hemifumarate)
The Cholesterol-free of the first is lower: 0.05041 for the first, 0.2855 for the second.

Same assay, conditions: NCI-H292 cells, complete media

Compared with Baricitinib (phosphate), Bazedoxifene (acetate) is higher in Complete: 0.5811 for the first, 0.8636 for the second.

First: Carbasalate calcium
Second: Carbetapentane (citrate)
The Complete of the first is lower: 0.8754 for the first, 0.9736 for the second.

Going from Carbinoxamine maleate salt to Clebopride (malate), the Complete falls from 0.9247 to 0.6807.

In the case of Clomiphene (citrate), the Complete is reported as 0.7484.

Same assay, conditions: NCI-H292 cells, complete media, FDA drug library screen

Going from Bleomycin (sulfate) to Cobimetinib (hemifumarate), the Complete rises from −0.00442 to 0.2917.

System: NCI-H292 lung cancer cells
Assay: FDA drug screening, complete media vs cholesterol-free media with simvastatin (TABLE 2)
Format: cell-based, human
Settings: not given

Compared with Benztropine (mesylate), Brimonidine (tartrate) is higher in “Cholesterol-free media + simvastatin (0.04 μM)” value: 0.7872 for the first, 1.704 for the second.

Compared with Chloramphenicol succinate (sodium), Chloroquine (phosphate) is higher in “Cholesterol-free media + simvastatin (0.04 μM)” value: 0.9173 for the first, 1.286 for the second.

First: Benztropine (mesylate)
Second: Brimonidine (tartrate)
The “Complete Media” value of the first is lower: 0.8586 for the first, 1.309 for the second.

First: Chloramphenicol succinate (sodium)
Second: Chloroquine (phosphate)
The “Complete Media” value of the first is lower: 0.8083 for the first, 0.98 for the second.

Going from Benztropine (mesylate) to Brimonidine (tartrate), the Difference falls from 0.07 to −0.39.

Going from Chloramphenicol succinate (sodium) to Chloroquine (phosphate), the Difference falls from −0.11 to −0.31.

Same assay, conditions: NCI-H292 cells, FDA drug library screen, cholesterol-free media with simvastatin 0.04 μM

First: Baricitinib (phosphate)
Second: Bazedoxifene (acetate)
The “Cholesterol-free media + simvastatin (0.04 μM)” value of the first is higher: 0.6632 for the first, 0.4477 for the second.

Compared with Carbetapentane (citrate), Carbinoxamine maleate salt is lower in “Cholesterol-free media + simvastatin (0.04 μM)” value: 0.8092 for the first, 0.757 for the second.

For Clomiphene (citrate), the “Cholesterol-free media + simvastatin (0.04 μM)” value was 0.1462.

Same assay, conditions: NCI-H292 cells, FDA drug library screen, complete media

First: Baricitinib (phosphate)
Second: Bazedoxifene (acetate)
The “Complete Media” value of the first is lower: 0.5619 for the first, 0.8485 for the second.

Going from Carbetapentane (citrate) to Carbinoxamine maleate salt, the “Complete Media” value falls from 1.195 to 1.12.

In the case of Clomiphene (citrate), the “Complete Media” value is reported as 1.001.

Same assay, conditions: NCI-H292 cells, FDA library drug in cholesterol-free media with simvastatin 0.04 μM

Bremelanotide (Acetate) was tested, and the “Cholesterol-free media + simvastatin (0.04 μM)” value was 1.644.

Same assay, conditions: NCI-H292 cells, FDA library drug in complete media

With Bremelanotide (Acetate) the “Complete Media” value was 1.021.

Same assay, conditions: NCI-H292 cells, cholesterol-free media with simvastatin 0.04 μM; FDA drug library screen (TABLE 2)

First: Bismuth subgallate
Second: Clebopride (malate)
The “Cholesterol-free media + simvastatin (0.04 μM)” value of the first is higher: 1.033 for the first, 0.7532 for the second.

Same assay, conditions: NCI-H292 cells, cholesterol-free media with simvastatin 0.04 μM; […]

Compared with Bleomycin (sulfate), Cetrorelix (Acetate) is higher in “Cholesterol-free media + simvastatin (0.04 μM)” value: 0.1778 for the first, 1.03 for the second.

In the case of Chondroitin (sulfate), the “Cholesterol-free media + simvastatin (0.04 μM)” value is reported as 1.097.

Same assay, conditions: NCI-H292 cells, complete media; FDA drug library screen (TABLE 2)

First: Bismuth subgallate
Second: Clebopride (malate)
The “Complete Media” value of the first is higher: 0.9832 for the first, 0.7281 for the second.

Same assay, conditions: NCI-H292 cells, complete media; […]

Compared with Bleomycin (sulfate), Carbasalate calcium is higher in “Complete Media” value: 0.2205 for the first, 1.129 for the second.

In the case of Chondroitin (sulfate), the “Complete Media” value is reported as 1.158.

Same assay, conditions: NCI-H292 cells, drug in cholesterol-free media with simvastatin 0.04 μM

Going from Bromocriptine (mesylate) to Cobimetinib (hemifumarate), the “Cholesterol-free media + simvastatin (0.04 μM)” value falls from 0.9355 to 0.5239.

Same assay, conditions: NCI-H292 cells, drug in complete media

Going from Bromocriptine (mesylate) to Cobimetinib (hemifumarate), the “Complete Media” value falls from 0.7343 to 0.3203.

Same assay, conditions: complete media minus cholesterol-free media + simvastatin (0.04 μM); >0 enhanced anti-cancer activity, about 0 neutral, <0 antagonist

Substance Clebopride (malate) has a Difference of −0.03.

Same assay, conditions: complete media minus cholesterol-free media + simvastatin (0.04 μM); […]

Bismuth subgallate was tested, and the Difference was −0.05.

Same assay, conditions: complete media minus cholesterol-free media + simvastatin; >0 enhanced anti-cancer activity, about 0 neutral, <0 antagonist

Going from Bazedoxifene (acetate) to Carbetapentane (citrate), the Difference falls from 0.40 to 0.39.

First: Carbinoxamine maleate salt
Second: Clomiphene (citrate)
The Difference of the first is lower: 0.36 for the first, 0.85 for the second.

Same assay, conditions: complete media minus cholesterol-free media + simvastatin; […]

Compared with Bleomycin (sulfate), Bulleyaconitine A is lower in Difference: 0.04 for the first, 0.03 for the second.

Going from Carbasalate calcium to Cetrorelix (Acetate), the Difference rises from 0.02 to 0.08.

Chondroitin (sulfate) gave a Difference of 0.06.

Same assay, conditions: complete media vs cholesterol-free media + simvastatin (0.04 μM); >0 enhanced anti-cancer activity, about 0 neutral, <0 antagonist

Cobimetinib (hemifumarate) was tested, and the Difference was −0.20.

Same assay, conditions: complete media vs cholesterol-free media + simvastatin (0.04 μM); […]

First: Baricitinib (phosphate)
Second: Bremelanotide (Acetate)
The Difference of the first is higher: −0.10 for the first, −0.62 for the second.

Bromocriptine (mesylate) was tested, and the Difference was −0.20.
